Patent publication US20050251869A1, “Animal model for raising HDL-cholesterol with niacin” (priority 2004, published 2005)
Read-outs that look alike come from different tables or passages of the source.

Tests used:
[1] = system: wild type C57BI/6J control mice; settings: for change in HDL-C compared with untreated WT mice: 1% niacin in diet
Excerpt: (§1) Materials: The mice used in these studies were pathogen-free C57BI/6J mice of the following genotypes: (1) wild type; (2) hemizygous human CETP-transgenic (hCETP-tg); (3) hemizygous human apoB100-transgenic, and 4) hemizygous human CETP and apoB100 dual-transgenic mice. The transgenic mice were purchased from Taconic Laboratories, Germantown, N.Y., where they were generated by introduction of genomic DNA fragments that drive expression of human CETP and/or apoB100 in the mouse liver (8-10).
(§2) Methods: Male mice (hCETP-tg and wild type C57BI/6J control mice; ˜10 weeks of age; 5-7/group) were used in this study. The mice were fed a normal rodent chow diet (Purina 7012) along with varying levels of niacin (milled with diet, expressed as % by weight of diet). They were housed with normal lighting and were allowed access to food and water ad lib. Blood samples were obtained by retro-orbital plexus at one, two and three weeks of treatment. After the fourth week of treatment, the mice were fasted for four hours and then euthanized. After euthanization, blood samples were collected by cardiac puncture. Serum lipids (total cholesterol, HDL-cholesterol, TG and FFA, and lipoprotein profiles) were determined. Serum samples from four weeks of treatment were also measured for CETP enzyme activity.

[2] = system: hemizygous human CETP-transgenic (hCETP-tg) mice; assay: Example 1: four-week niacin-in-diet study, serum lipids, hCETP-tg mice; type: in vivo, mouse; settings: for change in HDL-C compared with untreated h-CETP-tg mice: 1% niacin in diet
Excerpt: as §1, §2

hCETP-tg mice = settings: for increase of HDL-C / reduction of TG: 1% niacin in diet
Excerpt: as §2
Blood samples were obtained by retro-orbital plexus after one week of treatment, as in Example 1. After two weeks of treatment, the mice were fasted for four hours and then euthanized. Blood samples were collected by cardiac puncture. Serum lipids (total cholesterol, HDL-cholesterol, total triglyceride and FFA) were determined.

[3] = system: human ApoB 100 transgenic mice; settings: experiments similar to Examples 1 and 2
Excerpt: as §1

[4] = system: hemizygous human-CETP/ApoB100 dual transgenic mice
Excerpt: Methods: This example is a study of the lipid modulating effect of niacin in human CETP and Apo-B100 dual transgenic mice. These mice have a more human-like lipoprotein profile than WT mice, with a lower HDUnon-HDL-C ratio.
Mice (hemizygous human-CETP/ApoB100 dual transgenic mice, ˜10 weeks of age, 7-8/group) were fed a normal rodent chow diet (Purina 7012) along with varying levels of niacin (milled with the feed). They were housed with normal lighting and were allowed access to food and water ad lib. Blood samples were obtained by retro-orbital plexus after one week of treatment. After two weeks of treatment, the mice were fasted for four hours and then euthanized. Blood samples were collected by cardiac puncture. Serum lipids (total cholesterol, HDL-cholesterol, TG and FFA, and lipoprotein profiles) were determined.

[5] = system: human-CETP/human-apoA1 dual-transgenic mice; settings: 1% niacin in diet, one week
Excerpt: In addition, hemizygous human-CETP/human-apolipoprotein A1 dual-transgenic mice were generated by cross-breeding homozygous human-CETP transgenic male mice, purchased from Taconic, with homozygous human-apolipoprotein A1 transgenic female mice, purchased from Jackson Laboratories.
Methods: Mice used in this study express both human CETP and human apolipoprotein A1 genes. The mice were generated by cross-breeding homozygous human-CETP transgenic male mice with homozygous female human-apolipoprotein A1-transgenic mice. Female mice (˜10 weeks of age, 10/group) were fed a normal rodent chow diet (Purina 7012) with or without 1% niacin (milled with the feed). They were housed with normal lighting and were allowed access to food and water ad lib. After seven days of treatment, the mice were fasted for four hours and then euthanized. Blood samples were collected by cardiac puncture. Serum lipids (total cholesterol, HDL-cholesterol, TG and FFA, and lipoprotein profiles) were determined.

[6] = hCETP-tg mice, niacin in diet, appears dose-dependent
[7] = lipoprotein profiles by size exclusion chromatography
[8] = one week of treatment with niacin in diet
[9] = size exclusion chromatography, after two weeks of treatment

O=C(O)c1cccnc1 [niacin, nicotinic acid]
change in HDL-C compared with untreated WT mice ([1]; 1 week): −9%
change in HDL-C compared with untreated WT mice ([1]; 2 weeks): −17%
change in HDL-C compared with untreated WT mice ([1]; 3 weeks): −13%
change in HDL-C compared with untreated WT mice ([1]; 4 weeks): −7%
serum lipids, including TG, total cholesterol, HDL-C, non-HDL-C, and FFA ([1]; wild-type control mice, niacin in diet): broad reduction
change in HDL-C compared with untreated h-CETP-tg mice ([2]; 1 week): +40%
change in HDL-C compared with untreated h-CETP-tg mice ([2]; 2 weeks): +38%
change in HDL-C compared with untreated h-CETP-tg mice ([2]; 3 weeks): +37%
change in HDL-C compared with untreated h-CETP-tg mice ([2]; 4 weeks): +23%
FFA [2, 6]: reduction
HDL-cholesterol [2, 6]: increase
TG [2, 6]: reduction
non-HDL cholesterol [2, 6]: reduction
TG in the VLDL fractions [2, 7]: decline
cholesterol in the HDL fractions [2, 7]: rise
increase of HDL-C (hCETP-tg mice; one week of treatment): 35%
reduction of TG (hCETP-tg mice; one week of treatment): 44%
increase of HDL-C (hCETP-tg mice; two weeks of treatment): 37%
reduction of TG (hCETP-tg mice; two weeks of treatment): 45%
HDL particle size (hCETP-tg mice; [7]): without significant change
TG contents of VLDL, LDL and HDL particles (hCETP-tg mice; [7]): all reduced
cholesterol content in the HDL particles (hCETP-tg mice; [7]): increase
cholesterol content of the LDL and VLDL particles (hCETP-tg mice; [7]): reduced
level of HDL-C [3]: does not raise
increase in HDL-C ([4]; 0.1% niacin in diet, two weeks): 41%
decrease in HDL-C ([4]; 0.3% niacin in diet, two weeks): 5%
increase in HDL-C ([4]; 1% niacin in diet, two weeks): 15%
TC and TG [4, 8]: decrease
amount of HDL-C [4, 8]: without a significant change
TG in the VLDL and LDL fractions [4, 9]: decrease
cholesterol in the HDL fractions [4, 9]: increase
cholesterol in the LDL fractions [4, 9]: decrease
elevation of HDL-C ([5]; female mice): ~38%
reduction of TG ([5]; female mice): 53%
reduction of non-HDL-C ([5]; female mice): 39%
Non-HDL-C ([5]; male mice): did not change significantly
elevation of HDL-C ([5]; male mice): 27%
reduction of TG ([5]; male mice): 36%
